Results reported in patent US7514438B2, “Melanin concentrating hormone receptor antagonist” (Amgen, Inc., priority 2003, dated 2009).
Where two headings read alike, the source gives them in different places. Each block holds one compound with its values, some of them ahead of it.

Columns and labels:
human MCH receptor = molecular target: T1, human MCH receptor (Homo sapiens, UniProt Q99705); experiment: hMCH FLIPR calcium mobilization assay; assay type: cell-based; settings: read-out: Ki in the hMCH FLIPR assay
T1 construct: expressed in transfected cells

[1] = molecular target: T2, human MCH 1 receptor (hMCH1R) (Homo sapiens, UniProt Q99705); experiment: 125I-MCH ligand binding assay, hMCH; settings: HEK 293 membranes, 0.2 nM 125I native-MCH, read-out: IC50 in the hMCH binding assay
T2 construct: expressed in transfected cells; host or cells: HEK 293 (membranes)
In short: (§1)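 HEK293 membranes expressing rat or human MCH1R (100 µg tissue) were incubated for 90 min at 30 °C with 0.2 nM 125I-native-MCH and test compound in HEPES/MgCl2/BSA buffer with protease inhibitors, pH 7.4. Non-specific binding used 1 µM cold MCH. Filter-bound radioactivity gave IC50 by nonlinear regression.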

rat MCH1 receptor [2] = molecular target: T3, rat MCH1 receptor (Rattus norvegicus, UniProt P97639); experiment: rMCH FLIPR calcium mobilization assay (CHOK1-Gqi cells); assay type: cell-based; design: expressed in transfected cells; host or cells: CHOK1-Gqi; settings: CHOK1-Gqi cells, rat MCH1 receptor; 100 μM or less list; read-out: Ki in the rMCH FLIPR assay
Method: Pharmacological analyses were conducted using either a HT-PS100 device (Axiom Biotechnologies, San Diego, Calif.), which provides high-resolution dose-response fluorometric measurements of [Ca^++]i mobilization, or using a FLIPR® device (Molecular Devices, Sunnyvale, Calif.).
Materials: Pharmacological analysis was conducted using a FLIPR® device (Molecular Devices, Sunnyvale, Calif.). CHOK1-Gqi cells were stably transfected with the rat MCH1 receptor and maintained under G418 antibiotic pressure. FLIPR® assay buffer consisted of phenol red-free DMEM+2.5 mM probenecid. […]. Test compounds were prepared as 10 mM stocks in 100% DMSO and diluted to a top end working concentration of 10 μM in 96 well black, flat bottom, collagen-I coated plates (Becton Dickinson, Bedford, Mass.).
Methods: CHOK1-Gqi cells stably expressing MCH1R were maintained in Dulbeco's modified Eagle's medium (GIBCO/Life Technologies, Rockville, Md.) supplemented with 2 mM glutamine and 10% dialyzed fetal bovine serum (HyCLone, Logan, Utah) at 37° C., 5% CO2. Cells were harvested by 10′ treatment with Versene (GIBCO/Life Technologies) followed by trituration, washing twice with cold (4° C.) hybridoma medium (Serum/Protein free, with L-glutamine, sodium bicarbonate, MOPS buffer) (Sigma-Aldrich Corp, St. Louis, Mo.) and replated onto 96 well black, flat bottom, collagen-I coated plates to a density of 10,000 cells/well. The cells were then loaded with the fluorescent calcium indicator Fura-2 (Molecular Probes, Eugene, Oreg.) at 1.6 μM for 60′ at room temperature. The loaded cells were then washed twice with 90 μl/well of wash buffer (1×HBSS, 20 mM HEPES, 2.5 mM probenecid).
Receptor-stimulated intracellular calcium responses were detected using FLIPR® by monitoring increases in the Fura-2 fluorescence response.
Test compounds were screened for MCH1R activity in the FLIPR® for both agonist and antagonist action. Agonist mode challenges were conducted at a maximum gradient concentration of 1 μM. Antagonist activity was tested by 10 min pre-incubation of cells at a compound concentration of defined to be 300× the EC50 of MCH (typically 1 μM), with subsequent introduction of MCH at a concentration 5-fold of EC50 as determined in preliminary experiments. […].
Several fixed concentrations of antagonist compounds were prepared in 10-fold increments, and presented to the cells in a gradient of increasing MCH concentration. Values for compound pA2 were calculated by linear regression of MCH EC50s as a function of antagonist concentration.

rat MCH1 receptor [3] = molecular target: T3, rat MCH1 receptor; experiment: HT-PS100 calcium mobilization functional assay; assay type: cell-based; design: expressed in transfected cells; settings: HEK 293 cells stably transfected with rat MCH1 receptor; 100 nM or less list; read-out: Ki in the HT-PS100 assay
[4] = molecular target: T4, rat MCH 1 receptor (rMCH1R) (Rattus norvegicus, UniProt P97639); experiment: 125I-MCH ligand binding assay, rMCH; settings: HEK 293 membranes, 0.2 nM 125I native-MCH, read-out: IC50 in the rMCH binding assay
T4 construct: expressed in transfected cells; host or cells: HEK 293 (membranes)
In short: as §1

T3 sequence (P97639 whole entry): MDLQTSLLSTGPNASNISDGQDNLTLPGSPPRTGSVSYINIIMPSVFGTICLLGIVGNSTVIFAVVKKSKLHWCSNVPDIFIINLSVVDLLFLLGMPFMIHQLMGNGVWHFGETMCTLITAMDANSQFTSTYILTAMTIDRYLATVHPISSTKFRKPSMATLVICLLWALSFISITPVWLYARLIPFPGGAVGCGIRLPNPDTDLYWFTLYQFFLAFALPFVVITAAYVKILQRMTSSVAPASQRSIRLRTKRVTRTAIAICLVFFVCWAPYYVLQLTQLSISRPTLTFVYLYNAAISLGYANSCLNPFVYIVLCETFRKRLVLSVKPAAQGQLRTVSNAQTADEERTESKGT
T4 sequence (P97639 whole entry): as above
T1 sequence (Q99705 whole entry): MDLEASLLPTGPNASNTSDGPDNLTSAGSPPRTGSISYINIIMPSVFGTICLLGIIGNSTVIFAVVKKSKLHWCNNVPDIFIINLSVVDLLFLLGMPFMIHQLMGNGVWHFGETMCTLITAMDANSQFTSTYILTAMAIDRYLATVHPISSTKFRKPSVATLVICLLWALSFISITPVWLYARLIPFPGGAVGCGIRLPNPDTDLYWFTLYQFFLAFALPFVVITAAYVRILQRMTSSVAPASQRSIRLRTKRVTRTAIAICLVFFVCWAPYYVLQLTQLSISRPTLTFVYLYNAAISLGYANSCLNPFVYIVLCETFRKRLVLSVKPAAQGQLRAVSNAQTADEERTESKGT
T2 sequence (Q99705 whole entry): as above

SMILES: Cc1cccc(C)c1-n1nnnc1[C@H](c1ccccc1)N1CCN(C/C=C/c2ccccc2)CC1 (racemic) [Compound 4, 1-{[1-(2,6-dimethyiphenyl)-1H-tetrazol-5-yl]phenylmethyl}-4-(3-phenylallyl)piperazine]
- Ki (human MCH receptor; 100 nM or less list): ≤ 0.1 µM
- Ki (human MCH receptor; 100 μM or less list): ≤ 100 µM
- IC50 ([1]; 100 nM or less list): ≤ 0.1 µM
- IC50 ([1]; 100 μM or less list): ≤ 100 µM
- Ki (rat MCH1 receptor [2]): ≤ 100 µM
- Ki (rat MCH1 receptor [3]): ≤ 0.1 µM
- IC50 ([4]; 100 μM or less list): ≤ 100 µM

SMILES: Cc1cccc(C)c1-n1nnnc1[C@H](c1ccc2ccccc2c1)N1CCN(C/C=C/c2ccccc2)CC1 (racemic) [Compound 62, 1-{[1-(2,6-dimethylphenyl)-1H-tetrazol-5-yl]naphthalen-2-ylmethyl}-4-(3-phenylallyl)piperazine]
- Ki (human MCH receptor; 100 μM or less list): ≤ 100 µM
- IC50 ([1]; 100 nM or less list): ≤ 0.1 µM
- IC50 ([1]; 100 μM or less list): ≤ 100 µM
- Ki (rat MCH1 receptor [2]): ≤ 100 µM
- Ki (rat MCH1 receptor [3]): ≤ 0.1 µM
- IC50 ([4]; 100 μM or less list): ≤ 100 µM

SMILES: Cc1cccc([C@@H](c2nnnn2-c2c(C)cccc2C)N2CCN(C/C=C/c3ccccc3)CC2)c1 (racemic) [Compound 61, 1-{[1-(2,6-dimethylphenyl)-1H-tetrazol-5-yl]-m-tolylmethyl}-4-(3-phenylallyl) piperazine]
- Ki (human MCH receptor; 100 μM or less list): ≤ 100 µM
- IC50 ([1]; 100 μM or less list): ≤ 100 µM
- Ki (rat MCH1 receptor [2]): ≤ 100 µM
- Ki (rat MCH1 receptor [3]): ≤ 0.1 µM
- IC50 ([4]; 100 μM or less list): ≤ 100 µM

SMILES: Cc1ccc([C@@H](c2nnnn2-c2c(C)cccc2C)N2CCN(C/C=C/c3ccccc3)CC2)cc1 (racemic) [Compound 55, 1-{[1-(2,6-dimethyiphenyl)-1H-tetrazol-5-yl]-p-tolylmethyl]-4-(3-phenylallyl)piperazine]
- Ki (human MCH receptor; 100 nM or less list): ≤ 0.1 µM
- Ki (human MCH receptor; 100 μM or less list): ≤ 100 µM
- IC50 ([1]; 100 nM or less list): ≤ 0.1 µM
- IC50 ([1]; 100 μM or less list): ≤ 100 µM
- Ki (rat MCH1 receptor [2]): ≤ 100 µM
- Ki (rat MCH1 receptor [3]): ≤ 0.1 µM
- IC50 ([4]; 100 μM or less list): ≤ 100 µM

SMILES: Cc1cccc(C)c1-n1nnnc1[C@H](c1ccccc1)N1CCN(C/C=C/c2ccccc2)CC1 [Compound 1, 1-{[1-(2,6-dimethyiphenyl)-1H-tetrazol-5-yl]phenylmethyl}-4-(3-phenylallyl)piperazine]
- Ki (human MCH receptor; 100 μM or less list): ≤ 100 µM
- IC50 ([1]; 100 nM or less list): ≤ 0.1 µM
- IC50 ([1]; 100 μM or less list): ≤ 100 µM
- Ki (rat MCH1 receptor [2]): ≤ 100 µM
- Ki (rat MCH1 receptor [3]): ≤ 0.1 µM
- IC50 ([4]; 100 nM or less list): ≤ 0.1 µM
- IC50 ([4]; 100 μM or less list): ≤ 100 µM

Next, values leading:

- Ki (human MCH receptor; 100 nM or less list): ≤ 0.1 µM
- Ki (human MCH receptor; 100 μM or less list): ≤ 100 µM
- IC50 ([1]; 100 μM or less list): ≤ 100 µM
- Ki (rat MCH1 receptor [2]): ≤ 100 µM
- Ki (rat MCH1 receptor [3]): ≤ 0.1 µM
- IC50 ([4]; 100 nM or less list): ≤ 0.1 µM
- IC50 ([4]; 100 μM or less list): ≤ 100 µM
SMILES: Cc1cccc(C)c1-n1nnnc1[C@H](c1cccc(C#N)c1)N1CCN(C/C=C/c2ccccc2)CC1 (racemic) [Compound 79, 3-{[1-(2,6-dimethylphenyl)-1H-tetrazol-5-yl]-[4-(3-phenylallyl)piperazin-1-yl]methyl}benzonitrile]

- Ki (human MCH receptor; 100 μM or less list): ≤ 100 µM
- IC50 ([1]; 100 nM or less list): ≤ 0.1 µM
- IC50 ([1]; 100 μM or less list): ≤ 100 µM
- Ki (rat MCH1 receptor [2]): ≤ 100 µM
- Ki (rat MCH1 receptor [3]): ≤ 0.1 µM
- IC50 ([4]; 100 μM or less list): ≤ 100 µM
SMILES: COc1cccc([C@@H](c2nnnn2-c2c(C)cccc2C)N2CCN(C/C=C/c3ccccc3)CC2)c1 (racemic) [Compound 77, 1-[[1-(2,6-dimethylphenyl)-1H-tetrazol-5-yl]-(3-methoxyphenyl)methyl]-4-(3-phenylallyl)piperazine]

- Ki (human MCH receptor; 100 μM or less list): ≤ 100 µM
- IC50 ([1]; 100 nM or less list): ≤ 0.1 µM
- IC50 ([1]; 100 μM or less list): ≤ 100 µM
- Ki (rat MCH1 receptor [2]): ≤ 100 µM
- Ki (rat MCH1 receptor [3]): ≤ 0.1 µM
- IC50 ([4]; 100 μM or less list): ≤ 100 µM
SMILES: Cc1cccc(C)c1-n1nnnc1[C@H](c1ccc(-n2ccnc2)cc1)N1CCN(C/C=C/c2ccccc2)CC1 (racemic) [Compound 78, 1-[[1-(2,6-dimethylphenyl)-1H-tetrazol-5-yl]-(4-imidazol-1-ylphenyl)methyl]-4-(3-phenylallyl)piperazine]

- Ki (human MCH receptor; 100 nM or less list): ≤ 0.1 µM
- Ki (human MCH receptor; 100 μM or less list): ≤ 100 µM
- IC50 ([1]; 100 nM or less list): ≤ 0.1 µM
- IC50 ([1]; 100 μM or less list): ≤ 100 µM
- Ki (rat MCH1 receptor [2]): ≤ 100 µM
- Ki (rat MCH1 receptor [3]): ≤ 0.1 µM
- IC50 ([4]; 100 nM or less list): ≤ 0.1 µM
- IC50 ([4]; 100 μM or less list): ≤ 100 µM
SMILES: Cc1cccc(C)c1-n1nnnc1[C@H](c1ccc(OCc2ccccc2)cc1)N1CCN(C/C=C/c2ccccc2)CC1 (racemic) [Compound 70, 1-{(4-benzyloxyphenyl)-[1-(2,6-dimethylphenyl)-1H-tetrazol-5-yl]methyl}-4-(3-phenylallyl)piperazine]

- Ki (human MCH receptor; 100 μM or less list): ≤ 100 µM
- IC50 ([1]; 100 nM or less list): ≤ 0.1 µM
- IC50 ([1]; 100 μM or less list): ≤ 100 µM
- Ki (rat MCH1 receptor [2]): ≤ 100 µM
- Ki (rat MCH1 receptor [3]): ≤ 0.1 µM
- IC50 ([4]; 100 nM or less list): ≤ 0.1 µM
- IC50 ([4]; 100 μM or less list): ≤ 100 µM
SMILES: Cc1cccc(C)c1-n1nnnc1[C@H](c1cccc(OCCO)c1)N1CCN(C/C=C/c2ccccc2)CC1 (racemic) [Compound 84, 2-(3-{[1-(2,6-dimethylphenyl)-1H-tetrazol-5-yl]-[4-(3-phenylallyl)piperazin-1-yl]methyl}phenoxy)ethanol]
